Measured values from patent publication US9402827B2, “Treatment of gout” (ARDEA BIOSCIENCES, INC., priority 2010, dated 2016).

Experiments:
[1] = system: MSU-induced knee joint swelling; assay: In vivo MSU-induced inflammation, rat knee joint study (Example 3C); design: species or system Sprague-Dawley rats
Experimental: [table] Groups 1 and 2 were orally dosed with Vehicle (sterile water) once daily for seven days from Day 1. […] Groups 6 and 7 were orally dosed with Lesinurad once daily for seven days from Day 1; Group 7 also received colchicine administered subcutaneously on Day 7. […] The injection was performed from the anterior aspect of the knee joint, which was slightly extended and flexed. […] Four hours after MSU administration, the rats were anesthetized, the diameter of right knee joints were measured with calipers; surface temperature for right knees were measured. Synovial lavage fluid from the knee was collected by injecting phosphate buffered saline with 1% BSA (0.2 mL) into the joint cavity, the fluid then collected, centrifuged and the supernatants stored at −80° C.

[2] = system: IL-1β; assay: In vitro THP-1 (human cell) assay, IL-1β; format: cell-based; details: differentiated THP-1 cells, 6 hours, FIG. 3B
Experimental: (§1) Uric acid (2 g, Sigma, Cat #U0881, Log S89329-419) was heated in a flask at 200° C. for 2 hours. Endotoxin free water (396 mL) followed by aqueous sodium hydroxide solution (2.375 mL of 5N or 1.19 mL 10N) were added and heated on a stir plate until the uric acid dissolved. […] The solution was stirred at room temperature for 24 hours and then centrifuged at 1000 g for 10 min. The supernatant was discarded and resuspended in PBS and centrifuged at 1000 g for 10 min; this step was repeated twice. The washed crystals were heated at 60° C. until dry and then autoclaved at 200° C. for 2 hours. The crystals were then weighed and resuspended in PBS at a concentration of 26 mg/ml.
(§2) THP-1 cells were differentiated with 0.5 μM of phorbol myristate acetate (PMA) incubated for 3 hours. Cells were then spun down and washed once with HBSS. 1.25×10^6/mL cells were plated in white clear bottom white 96 well plate in 100 μL volume and incubated overnight. The next day the media was aspirated from the wells. 100 μL of 1× Optimem along with the compounds were added.

[3] = system: TNF-α; assay: In vitro THP-1 (human cell) assay, TNF-α; format: cell-based; details: differentiated THP-1 cells, 6 hours, FIG. 3A
Experimental: as §1, §2

[4] = system: gout flares; assay: Phase II clinical trial, gout dose response study: incidence of gout flares (Example 4); format: in vivo, human
[5] = system: IL-1β; assay: Effect on IL-1β release after stimulation with ATP or MSU crystals (Example 1, FIG. 1); format: cell-based; details: within 1 hour of stimulation with ATP (5 mM) or 1 μg MSU crystals
Experimental: FIG. 1 illustrates the effect of Lesinurad on IL-1β release within 1 hour of stimulation with ATP (5 mM) or 1 μg MSU (monosodium urate) crystals (compd1=Lesinurad; C-1inh=caspase-1 inhibitor).
Activation of the inflammasome results in the release of preformed IL-1, which goes on to activate other targets as well as increase the production of IL-1 itself.

[6] = system: gout flares; assay: Phase II clinical trial, gout dose response study: incidence of gout flares (Example 4); format: in vivo, human; remark: listed apart in the source
Experimental: Purpose: To compare the proportion of subjects whose serum urate (sUA) level is <6.0 mg/dL after 28 days of dosing by treatment group. Official Title: Randomized, Double-Blind, Multicenter, Placebo-Controlled, Safety and Efficacy Study of Lesinurad Versus Placebo in the Treatment of Hyperuricemia in Patients With Gout Experimental dosage form: 200 mg capsule of Lesinurad, with appropriate pharmaceutically acceptable excipients Design: • Control: Placebo Control • Endpoint Classification: Safety/Efficacy Study • Intervention Model: Parallel Assignment • Masking: Double Blind (Subject, Caregiver, Investigator, Outcomes Assessor) • Primary Purpose: Treatment Primary Outcome Measures: Compare the proportion of subjects whose serum urate (sUA) level is <6.0 mg/dL after 28 days of dosing by treatment group. […] [table] Inclusion Criteria: • Male or post-menopausal or surgically sterile female. • Hyperuricemic (i.e., screening sUA≧8 mg/dL). • Meets criteria for the diagnosis of gout as per the American Rheumatism Association (ARA) Criteria for the Classification of Acute Arthritis of Primary Gout (see Appendix B). • Willing and able to give informed consent and adhere to visit/protocol schedules (informed consent must be given before the first study procedure is performed).

[7] = system: monosodium urate crystal-induced inflammatory response; assay: Rat air pouch model of crystal-induced arthropathy (Example 3A); format: in vivo, Sprague-Dawley rats; details: Lesinurad 10, 30 and 100 mg/kg PO; MSU 150 mg; FIG. 5
Experimental: Procedure • 1. […] NaOH was added as required to maintain pH 8-9. The solution was filtered and incubated at ambient with slow stirring continuously for 24 hours. • b. Crystals were washed, dried and sterilized by autoclaving. • c. […] The rats were anesthetized and bled for sample from retro-orbital sinus into microtainer tubes. • a. The blood was processed to serum; • b. The serum was transferred to labeled Eppendorf tubes (T=0) and stored at −80° C. • c. […] DAY 0: The rats are anesthetized. • a. The nape of the neck was shaved, cleansed with 70% isopropanol followed by cleansing with Povidone. • b. A 23-gauge needle was attached to a 30 ml syringe fitted with an air filter. • c. 30 ml of sterile air was injected subcutaneously and the rat returned to routine maintenance. • 7. DAY 3: Steps 6a) through 6c) were repeated. • 8. […] Exudates volume was measured and recorded for each animal. • a. […] Mean cell counts and standard deviations were determined for each group. • b. Mean optical absorbance measurements and standard deviations were determined for each group. • c. Group means and standard deviations for TNF-alpha and IL-1 were determined for each group. • d. Statistical significance of treatments on mean cell counts, mean optical absorbance measurements and mean cytokine measurements were determined by comparison of means for treatment and positive control groups with vehicle group.

O=C(O)CSc1nnc(Br)n1-c1ccc(C2CC2)c2ccccc12 [Lesinurad, 2-(5-bromo-4-(4-cyclopropylnaphthalen-1-yl)-4H-1,2,4-triazol-3-ylthio)acetic acid]
Average increase in knee diameter ([1]; Lesinurad 60 mg/kg p.o. once daily Day1-Day7, 4 h after MSU, p < 0.001 vs Vehicle): 0.46 mm
MSU-induced increase in knee diameter, in words ([1]; Lesinurad 60 mg/kg/day): significantly decreased the MSU-induced increase in knee diameter
IC50 [2]: ~30 µM
IC50 [3]: ~52 µM
% of patients with Flares by Dose at Time of Flare ([4]; 400 mg at time of flare (1/65)): 2% (1/65)
Mean Duration of Flares (by dose at time of flare) ([4]; 600 mg at time of flare): 1.7 days
% Patients with Flares ([4]; Randomized dose group 400 mg, N 33): 12%
Mean Duration of Flares ([4]; Randomized dose group 600 mg): 1.5 days
Duration of flares, in words ([4]; across dose groups 200-600 mg): shorter at higher doses
Flares in the first week out of total flares on drug ([4]; first week, patients receiving 200 mg QD): 6/10
IL-1 release [5]: blocks IL-1 release very early
Mean Duration of Flares (by dose at time of flare) ([6]; 200 mg at time of flare): 4 days
% of patients with Flares by Dose at Time of Flare ([6]; 200 mg at time of flare (6/96)): 6% (6/96)
Mean Duration of Flares (by dose at time of flare) ([6]; 400 mg at time of flare): 2 days
% of patients with Flares by Dose at Time of Flare ([6]; 600 mg at time of flare (3/32)): 9% (3/32)
Mean Duration of Flares ([6]; Randomized dose group 200 mg): 4 days
% Patients with Flares ([6]; Randomized dose group 200 mg, N 31): 6%
Mean Duration of Flares ([6]; Randomized dose group 400 mg): 3.8 days
% Patients with Flares ([6]; Randomized dose group 600 mg, N 32): 13%
monosodium urate crystal-induced inflammatory response (total white blood cell counts) [7]: blocked
